In patent US20250034136A1 (Nimbus Wadjet, Inc., priority 2023, published 2025) one finds EC50 and IC50 data, which are given here for 14 molecules.

A value given as a limit tells only on which side of the number the result lay.

The subject of assay [1] is p21 induction in HCT116 cells. The assay is described as follows: p21 induction in HCT116 cells. The class given is cell-based. As to conditions: Homo sapiens, HCT-116, 24 h, HCT116 cells, 24 h compound incubation; read-out: P21_EC50. The method, boiled down:
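EC50 from non-linear curve fit of p21 immunofluorescence (800 nm), with GAPDH (700 nm) read alongside. DMSO and a reference WRN inhibitor served as low and high controls. Cells (2,000/well) got 11 compound concentrations in duplicate for 24 h at 37 °C.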

In assay [2] the target is WRN (BV08), human Werner helicase (Uniprot Q14191, amino acids 517-1235 with L1074F point mutation) (Homo sapiens (Human), UniProt Q14191, L1074F). The assay is described as follows: WRN (BV08) ADP-Glo assay. Particulars: class symbols A-E, read-out: ADP-Glo_hWRN_IC50. It counts as biochemical.
WRN (BV08), human Werner helicase (Uniprot Q14191, amino acids 517-1235 with L1074F point mutation), sequence (Q14191 other isoform, or with tags, fused parts or gaps L1074F (already in the parent)): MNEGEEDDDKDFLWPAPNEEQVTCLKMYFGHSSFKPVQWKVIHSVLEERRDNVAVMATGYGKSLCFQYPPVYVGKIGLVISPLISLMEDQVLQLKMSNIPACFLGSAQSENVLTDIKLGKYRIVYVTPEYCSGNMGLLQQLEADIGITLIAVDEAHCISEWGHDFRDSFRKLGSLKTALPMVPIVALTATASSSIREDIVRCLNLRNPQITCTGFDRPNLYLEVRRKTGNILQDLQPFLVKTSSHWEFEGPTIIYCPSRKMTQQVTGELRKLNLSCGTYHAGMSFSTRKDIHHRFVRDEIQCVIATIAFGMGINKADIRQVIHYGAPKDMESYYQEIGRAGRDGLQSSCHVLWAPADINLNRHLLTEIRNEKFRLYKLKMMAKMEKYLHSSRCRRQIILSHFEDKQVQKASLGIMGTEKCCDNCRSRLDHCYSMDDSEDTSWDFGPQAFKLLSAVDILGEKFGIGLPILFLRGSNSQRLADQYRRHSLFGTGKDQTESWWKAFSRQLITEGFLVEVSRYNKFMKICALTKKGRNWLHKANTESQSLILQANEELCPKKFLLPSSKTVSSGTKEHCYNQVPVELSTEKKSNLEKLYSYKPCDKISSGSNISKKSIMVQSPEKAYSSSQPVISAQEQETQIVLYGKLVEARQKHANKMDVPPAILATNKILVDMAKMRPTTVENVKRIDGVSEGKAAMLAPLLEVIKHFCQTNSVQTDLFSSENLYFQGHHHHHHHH

Take `CCc1c(N2CC3CC2CN3C(=O)c2ncnc(C)c2O)c(=O)c2nc(N(C)C)cnc2n1CC(=O)Nc1ccc(C(F)(F)F)cc1Cl` (stereo not shown) [I-258, N-[2-chloro-4-(trifluoromethyl)phenyl]-2-[2-(dimethylamino)-6-ethyl-7-[5-(5-hydroxy-6-methylpyrimidine-4-carbonyl)-2,5-diazabicyclo[2.2.1]heptan-2-yl]-8-oxo-5H,8H-pyrido[2,3-b]pyrazin-5-yl]acetamide]: in assay [1], the EC50 is over 5000 nM. The IC50 in assay [2] lay in the range of 100 to 500 nM.

On to `CCc1c(N2CCN(C(=O)c3ncnc(C)c3O)[C@H]3CCC[C@@H]32)c(=O)c2nc3cc(C)oc3nc2n1CC(=O)Nc1ccc(C(F)(F)F)cc1Cl` [I-123, 2-{11-[(4aS,7aS)-4-(5-hydroxy-6-methylpyrimidine-4-carbonyl)-octahydro-1H-cyclopenta[b]pyrazin-1-yl]-12-ethyl-5-methyl-10-oxo-4-oxa-2,8,13-triazatricyclo[7.4.0.0^{3,7}]trideca-1,3(7),5,8,11-pentaen-13-yl}-N-[2-chloro-4-(trifluoromethyl)phenyl]acetamide], for which the EC50 in assay [1] was under 500 nM. For the same molecule, the IC50 in assay [2] was 5 to 50 nM.

Regarding `CCc1c(N2CCN(C(=O)c3ncnc(C)c3O)[C@@H](C)[C@@H]2C)c(=O)c2nc(N(C)C)cnc2n1CC(=O)Nc1ccc(C(F)(F)F)cc1Cl` (single isomer, unassigned) [I-234, N-(2-chloro-4-(trifluoromethyl)phenyl)-2-(2-(dimethylamino)-6-ethyl-7-(4-(5-hydroxy-6-methylpyrimidine-4-carbonyl)-2,3-dimethylpiperazin-1-yl)-8-oxopyrido[2,3-b]pyrazin-5(8H)-yl)acetamide], the EC50 in assay [1] fell in the range of 500 to 2000 nM. Also, in assay [2], the IC50 is 5 to 50 nM.

`CCc1c(N2CCN(C(=O)c3ncnc(C)c3O)CC2)c(=O)c2nc(NC3CCC3)cnc2n1CC(=O)Nc1ccc(C(F)(F)F)cc1Cl` [I-161, N-[2-chloro-4-(trifluoromethyl)phenyl]-2-[2-(cyclobutylamino)-6-ethyl-7-[4-(5-hydroxy-6-methylpyrimidine-4-carbonyl)piperazin-1-yl]-8-oxo-5H,8H-pyrido[2,3-b]pyrazin-5-yl]acetamide]: the EC50 in assay [1] was 2000 to 5000 nM. Further, the IC50 in assay [2] was 5 to 50 nM.

Take `CCc1c(N2CCN(C(=O)c3ncnc(C)c3O)[C@H]3CC[C@@H]32)c(=O)c2nc(NC)cnc2n1CC(=O)Nc1ccc(C(F)(F)F)cc1Cl` (racemic) [I-97, rac-N-(2-chloro-4-(trifluoromethyl)phenyl)-2-(6-ethyl-7-(-5-(5-hydroxy-6-methylpyrimidine-4-carbonyl)-2,5-diazabicyclo[4.2.0]octan-2-yl)-2-(methylamino)-8-oxopyrido[2,3-b]pyrazin-5(8H)-yl)acetamide]: the EC50 in assay [1] was under 500 nM. For the same molecule, the IC50 in assay [2] was 5 to 50 nM.

With `CCc1c(N2CCN(C(=O)c3nccc(F)c3O)CC2)c(=O)c2nc(N(C)C)cnc2n1CC(=O)Nc1ccc(C(F)(F)F)cc1Cl` [I-212, N-[2-chloro-4-(trifluoromethyl)phenyl]-2-[2-(dimethylamino)-6-ethyl-7-[4-(4-fluoro-3-hydroxypyridine-2-carbonyl)piperazin-1-yl]-8-oxo-5H,8H-pyrido[2,3-b]pyrazin-5-yl]acetamide], in assay [1], the EC50 is 500 to 2000 nM. In addition, the IC50 in assay [2] lay within 5 to 50 nM.

Turning to `CCc1c(N2CCN(C(=O)c3ncnc(C)c3O)CC2)c(=O)c2nc(/C=C3/CCOC3)cnc2n1CC(=O)Nc1ccc(C(F)(F)F)cc1Cl` [I-35, N-(2-chloro-4-(trifluoromethyl)phenyl)-2-(2-((dihydrofuran-3(2H)-ylidene)methyl)-6-ethyl-7-(4-(5-hydroxy-6-methylpyrimidine-4-carbonyl)piperazin-1-yl)-8-oxopyrido[2,3-b]pyrazin-5(8H)-yl)acetamide], the EC50 in assay [1] fell in the range of 2000 to 5000 nM. In assay [2], the IC50 lay within 5 to 50 nM.

For `CCc1c(N2CCN(C(=O)c3ncc4c(c3O)OCC4)CC2)c(=O)c2ncc(C)nc2n1CC(=O)Nc1ccc(C(F)(F)F)cc1Cl` [I-68, N-(2-chloro-4-(trifluoromethyl)phenyl)-2-(6-ethyl-7-(4-(7-hydroxy-2,3-dihydrofuro[3,2-c]pyridine-6-carbonyl)piperazin-1-yl)-3-methyl-8-oxopyrido[2,3-b]pyrazin-5(8H)-yl)acetamide], the EC50 in assay [1] is over 5000 nM. Besides, the IC50 in assay [2] was 5 to 50 nM.

Consider `CCc1c(N2CCN(C(=O)c3ncnc(C)c3O)CC2)c(=O)c2nc3sc(C)cc3nc2n1CC(=O)Nc1ccc(C(F)(F)F)cc1Cl` [I-113, N-(2-chloro-4-(trifluoromethyl)phenyl)-2-(6-ethyl-7-(4-(5-hydroxy-6-methylpyrimidine-4-carbonyl)piperazin-1-yl)-2-methyl-8-oxopyrido[2,3-b]thieno[2,3-e]pyrazin-5(8H)-yl)acetamide], for which the EC50 in assay [1] is under 500 nM. The IC50 in assay [2] was at most 5 nM.

Consider `CCc1c(N2CCN(C(=O)c3ncnc(C)c3O)CC2)c(=O)c2nc(C(C)(C)F)cnc2n1CC(=O)Nc1ccc(C(F)(F)F)cc1Cl` [I-174, N-[2-chloro-4-(trifluoromethyl)phenyl]-2-[6-ethyl-2-(2-fluoropropan-2-yl)-7-[4-(5-hydroxy-6-methylpyrimidine-4-carbonyl)piperazin-1-yl]-8-oxo-5H,8H-pyrido[2,3-b]pyrazin-5-yl]acetamide], for which the EC50 in assay [1] lay within 2000 to 5000 nM. For the same molecule, in assay [2], the IC50 was in the range of 5 to 50 nM.

Consider `CCc1c(N2CCN(C(=O)c3ncnc(C)c3O)CC2)c(=O)c2nc(N3CCC[C@H]3C(C)(C)O)cnc2n1CC(=O)Nc1ccc(C(F)(F)F)cc1Cl` [I-153, N-[2-chloro-4-(trifluoromethyl)phenyl]-2-{6-ethyl-7-[4-(5-hydroxy-6-methylpyrimidine-4-carbonyl)piperazin-1-yl]-2-[(2S)-2-(2-hydroxypropan-2-yl)pyrrolidin-1-yl]-8-oxo-5H,8H-pyrido[2,3-b]pyrazin-5-yl}acetamide], for which the EC50 in assay [1] was 2000 to 5000 nM. Moreover, the IC50 in assay [2] is 5 to 50 nM.

As to `CCc1c(N2CCN(C(=O)c3ncnc(C)c3O)[C@H]3CC[C@@H]32)c(=O)c2nc(OC)cnc2n1CC(=O)Nc1ccc(C(F)(F)F)cc1Cl` [I-182, N-[2-chloro-4-(trifluoromethyl)phenyl]-2-{6-ethyl-7-[(1S,6S)-5-(5-hydroxy-6-methylpyrimidine-4-carbonyl)-2,5-diazabicyclo[4.2.0]octan-2-yl]-2-methoxy-8-oxo-5H,8H-pyrido[2,3-b]pyrazin-5-yl} acetamide], in assay [1], the EC50 was under 500 nM. For the same molecule, the IC50 in assay [2] is at most 5 nM.

Take `CCc1c(N2CCN(C(=O)c3ncnc(C)c3O)[C@H]3CC[C@@H]32)c(=O)c2nc(C3=CCOCC3)cnc2n1CC(=O)Nc1ccc(C(F)(F)F)cc1Cl` [I-284, N-[2-chloro-4-(trifluoromethyl)phenyl]-2-[2-(3,6-dihydro-2H-pyran-4-yl)-6-ethyl-7-[(1S,6S)-5-(5-hydroxy-6-methylpyrimidine-4-carbonyl)-2,5-diazabicyclo[4.2.0]octan-2-yl]-8-oxo-5H,8H-pyrido[2,3-b]pyrazin-5-yl]acetamide]: the EC50 in assay [1] was under 500 nM. In addition, the IC50 in assay [2] fell in the range of 5 to 50 nM.

`CCc1c(N2CCN(C(=O)c3c(O)cnnc3OC)[C@H]3CC[C@@H]32)c(=O)c2nc(N(C)C)cnc2n1CC(=O)Nc1ccc(C(F)(F)F)cc1Cl` [I-183, N-[2-chloro-4-(trifluoromethyl)phenyl]-2-[2-(dimethylamino)-6-ethyl-7-[(1S,6S)-5-(5-hydroxy-3-methoxypyridazine-4-carbonyl)-2,5-diazabicyclo[4.2.0]octan-2-yl]-8-oxo-5H,8H-pyrido[2,3-b]pyrazin-5-yl]acetamide]: in assay [1], the EC50 is over 5000 nM. In addition, in assay [2], the IC50 is 5 to 50 nM.
